According to patent publication US8143250B2, “6-7,dialkoxy quinazoline derivatives useful for treatment of cancer related disorders” (priority 2008, dated 2012):
“Also recorded” adds a separate entry of the source. Where a name gives a salt, the structure may show the parent alone. Read-outs that look alike come from different tables or passages of the source.

What was measured:
[1] = test system: A549 luciferase expressing cells; experiment: Nude mice implanted with A549 luciferase expressing cells, tumor observation; format: in vivo; details: 42 days treatment, oral and ip routes
A549 cells [2] = experiment: Visualization of tumors in lung tissue (H&E sections); format: in vivo, nude mice; details: intrapulmonary A549, 2.5 and 20 mg/Kg, oral/ip, thirty days daily treatment
From the text: Nude mice were implanted by intrapulmonary injections of A549 cells. […] Thirty days after daily drug treatments, mice were sacrificed and lungs harvested. The lung tissues were fixed in 10% buffered formaldehyde, paraffin embedded and sectioned. The sections were H&E stained as per statutory protocols to visualize solid or diffuse tumors.

Erb B4 = experiment: Western blot of receptor levels in A549 cells: Erb B4; format: cell-based, human
Method: (§1) Levels of Erb-1, Erb-2, Erb-3, Erb-4 and VEGFR were determined by western blot analysis.

EGFR = target: T1, EGFR (Homo sapiens, UniProt P00533); experiment: Western blot analysis of EGFR expression; format: cell-based; details: for concentration causing comparable inhibition of EGFR expression: H1299 or A549 cells, 72 hr
T1 construct: endogenous in cells; host or cells: H1299 or A549 cells
From the text: The gels were blotted onto treated nylon membranes (Biorad) and immunoprobed for EGFR, P13K and AKT.

A549 cells [3] = experiment: In vivo evaluation on subcutaneous lung tumours in nude mice; details: for tumour regression: subcutaneous A549 tumours
From the text: Nude mice were implanted with 2×10^6 A549 cells in the right hind limb flank.

Erb B2 = experiment: Western blot of receptor levels in A549 cells: Erb B2; format: cell-based, human
Method: as §1

H1299 and A549 cells = experiment: Matrigel invasion assay (modified Boyden chamber); format: cell-based, human; details: cells treated 48 hr, migration 24 h
Method: The in vitro invasiveness of H1299 and A549 cells in the presence of various concentrations of NRC compounds (as determined by MTT assay) was assessed using a modified Boyden chamber assay. Cells were treated with these compounds for 48 hr. 1×10^6 cells were suspended in 600 μl of serum-free medium supplemented with 0.2% BSA and placed in the upper compartment of the transwell chambers (Corning Costar Fisher Scientific cat #07-200-158, Pittsburgh Pa.) coated with matrigel (0.7 mg/ml). The lower compartment of the chamber was filled with 200 μl of serum medium and the cells were allowed to migrate for 24 h. after incubation, the cells were fixed and stained with Hema-3 and quantified as previously described (Mohanam et al. 1993). The migrated cells were quantified as percent invasion.

Erb B3 = experiment: Western blot of receptor levels in A549 cells: Erb B3; format: cell-based, human
Method: as §1

VEGFR = experiment: Western blot of receptor levels in A549 cells: VEGFR; format: cell-based, human
Method: as §1

male and female mice = experiment: Acute toxicity (LD0, LD50) in mice; format: in vivo; details: single oral dose; for LD50: Litchfield and Wilcoxon; for LD0: no mortality at end of 7 days
Method: The doses 500, 750, 1000 and 2000 mg/Kg were administered orally. Each group consists of 5 mice. […] The survived animals were autopsied for asserting the absorption of compound through g.i.t.
The LD50 was determined using Litchfield and Wilcoxon (J. Pharmacol. Exp. Ther. 1949, 96: 99-113).

[4] = test system: A549 luciferase expressing cells; experiment: Evaluation of lung tissue harvested from nude mice after treatment; format: in vivo; details: various concentrations, oral/ip routes
A549 cells [5] = experiment: Evaluation of ED50 from lung section and tumor regression studies; format: in vivo, nude mice; details: oral route, based on lung section and tumor regression studies
Method: The ED50 values were evaluated based on the lung section and tumor regression studies. […].

A549 and H1299 cells = experiment: cells; details: Homo sapiens, read-out: inhibiting concentration (IC50)
Method: Solubilization of the cells by the addition of a detergent results in the liberation of the crystals, which are solubilized. The number of surviving cells is directly proportional to the level of the formazan product created. The color can then be quantified using a simple colorimetric assay. This assay was done using 0-1000 ng/ml concentrations of Erlotinib and the test compounds in A549 and H1299 cells.

C#Cc1cccc(Nc2ncnc3cc(OC)c(OCCCN4CCOCC4)cc23)c1 [NRC-2694, N-(3-ethylnylphenyl)-7-methoxy-6-[3-(4-morpholinyl)propoxy]-4-quinazolinamine]
tumors at end of treatment [1]: No tumors were observed | tumors in lung tissue sections, comparison with erlotinib HCl (A549 cells [2]): fared much better | Erb B4 level (Erb B4): down regulating | Erb B4 level (Erb B4; listed as NRC 2694): down regulated | level of efficacy versus erlotinib HCl (EGFR expression) (EGFR; 80 ng versus 800 ng): ten fold | concentration causing comparable inhibition of EGFR expression (EGFR): 80 ng | concentration causing comparable inhibition of EGFR expression (EGFR; value in parentheses): 190 nm | tumour regression (A549 cells [3]; 10 mg/Kg dose): complete regression of tumours | superiority in efficacy versus erlotinib HCl (A549 cells [3]; 10 mg/Kg versus 100 mg/Kg): ten fold | Erb B2 level (Erb B2): down regulating | Erb B2 level (Erb B2; listed as NRC 2694): down regulated | invasion (H1299 and A549 cells): significant decrease in invasion in a dose dependent manner | Erb B3 level (Erb B3): down regulating | Erb B3 level (Erb B3; listed as NRC 2694): down regulated | VEGFR level (VEGFR): down regulating | VEGFR level (VEGFR; listed as NRC 2694): down regulated | LD50 (male and female mice): could not be pinpointed | LD0 (male and female mice): 2000 mg/kg (po) | residual tumours in harvested lungs [4]: Complete regression of tumours | ED50 (A549 cells [5]): 6.3 mg/kg

C#Cc1cccc(Nc2ncnc3cc(OCCOC)c(OCCOC)cc23)c1 [Erlotinib HCl, N-(3-Ethylnylphenyl)-6,7-bis(2-methoxyethoxy)-4-quinazolinamine, reference compound]
tumors at end of treatment [1]: residual tumors were still present | Erb B4 level (Erb B4): not seen at all; also recorded: no such indication was seen | tumour regression (A549 cells [3]; 100 mg/Kg dose): could not induce complete tumor regression; also recorded: tumours were still present | Erb B2 level (Erb B2): not seen at all; also recorded: no such indication was seen | Erb B3 level (Erb B3): not seen at all; also recorded: no such indication was seen | VEGFR level (VEGFR): not seen at all; also recorded: no such indication was seen | LD50 (male and female mice): 805 mg/kg (po) | LD0 (male and female mice): 500 mg/kg (po) | IC50 (A549 and H1299 cells): 0.836 µg/mL | residual tumours in harvested lungs [4]: tumours were still present | ED50 (A549 cells [5]; Mus musculus, A549, read-out: ED50): 22 mg/kg
